Test results as given in patent publication US7786141B2 (Vertex Pharmaceuticals Incorporated, priority 2004, dated 2010).
Like-named read-outs stand apart in the source and are kept apart here.

Columns and labels:
M1 muscarinic receptor = molecular target: T1, M1 muscarinic receptor (Homo sapiens, UniProt P11229); assay: Functional mobilization of intracellular calcium (FLIPR) in M1-CHO cells; assay type: cell-based
T1 construct: expressed in transfected cells; host or cells: CHO (M1-CHO)
T1 sequence (P11229 1-460): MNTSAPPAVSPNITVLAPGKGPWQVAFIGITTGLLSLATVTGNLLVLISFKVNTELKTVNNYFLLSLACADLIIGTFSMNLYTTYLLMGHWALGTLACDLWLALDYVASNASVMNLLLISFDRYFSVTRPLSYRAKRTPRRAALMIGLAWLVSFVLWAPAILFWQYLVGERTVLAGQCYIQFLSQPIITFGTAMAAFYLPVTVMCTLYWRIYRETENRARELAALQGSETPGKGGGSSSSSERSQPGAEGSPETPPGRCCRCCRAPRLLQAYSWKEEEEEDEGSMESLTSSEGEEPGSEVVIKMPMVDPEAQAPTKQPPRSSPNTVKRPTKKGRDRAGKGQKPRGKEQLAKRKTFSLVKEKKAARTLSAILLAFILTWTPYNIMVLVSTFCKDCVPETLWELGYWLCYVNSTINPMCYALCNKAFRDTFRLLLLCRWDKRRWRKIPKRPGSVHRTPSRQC
Method in brief: (§1)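 Steps: seed M1- or M4-CHO cells 18-24 hrs ahead; load calcium dye with 1 mM probenecid; add test compound (0.5% DMSO final), either alone for agonism or 15 min before EC80 carbachol for inhibition; record FLIPR fluorescence for 60 sec.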

M4 muscarinic receptor = molecular target: T2, M4 muscarinic receptor (Homo sapiens, UniProt P08173); assay: Functional mobilization of intracellular calcium (FLIPR) in M4-CHO cells; assay type: cell-based
T2 construct: expressed in transfected cells; host or cells: CHO (M4-CHO)
T2 sequence (P08173 1-479): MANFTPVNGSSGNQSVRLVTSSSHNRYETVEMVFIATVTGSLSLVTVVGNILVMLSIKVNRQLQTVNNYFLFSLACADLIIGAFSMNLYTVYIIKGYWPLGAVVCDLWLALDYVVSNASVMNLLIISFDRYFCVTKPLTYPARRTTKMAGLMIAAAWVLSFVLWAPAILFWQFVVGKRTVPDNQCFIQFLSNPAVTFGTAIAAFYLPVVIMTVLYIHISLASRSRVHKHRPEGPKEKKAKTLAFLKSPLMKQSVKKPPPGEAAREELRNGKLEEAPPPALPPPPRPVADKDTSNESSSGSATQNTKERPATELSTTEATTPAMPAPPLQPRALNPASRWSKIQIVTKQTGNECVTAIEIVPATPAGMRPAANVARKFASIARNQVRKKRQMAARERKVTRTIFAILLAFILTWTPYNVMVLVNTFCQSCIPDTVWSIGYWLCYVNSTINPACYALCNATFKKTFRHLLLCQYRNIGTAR
Method in brief: as §1

[1] = Table 4, 100% efficacy is the maximum response obtained with the Carbachol control
[2] = Table 4, modulating M1 receptor
[3] = Table 4, modulating M4 receptor
[4] = M1 receptor, calcium mobilization
[5] = M1 receptor, calcium mobilization, read-out: M1 Efficacy
[6] = M4 receptor, calcium mobilization
[7] = M4 receptor, calcium mobilization, read-out: M4 Efficacy
[8] = Table 4, M1 receptor, calcium mobilization (FLIPR)
[9] = Table 4, M4 receptor, calcium mobilization (FLIPR)
[10] = 100% efficacy is the maximum response obtained with the Carbachol control, Table 5

Compound	Emax (M1 muscarinic receptor; [1]) [%]	M1 Activity (M1 muscarinic receptor; [2])	Emax (M4 muscarinic receptor; [1]) [%]	M4 Activity (M4 muscarinic receptor; [3])	M1 Activity (M1 muscarinic receptor; [4])	Emax (M1 muscarinic receptor; [5]) [%]	M4 Activity (M4 muscarinic receptor; [6])	Emax (M4 muscarinic receptor; [7]) [%]	other results
CC(=O)N1CC2(CCN(C3CCN(C(C)C)CC3)CC2)c2cc(F)ccc21 [compound 441]	< 25	x (activity was measured to be greater than 5.0 μM)	< 25	x (activity was measured to be greater than 5.0 μM)	–	–	–	–	–
Fc1ccc2c(c1)C1(CCN(C3CCOCC3)CC1)CN2 [compound 299]	–	–	–	–	x (activity was measured to be greater than 1.0 μM)	65 to 85	x (activity was measured to be greater than 1.0 μM)	65 to 85	–
CCOC(=O)N1CCC(N2CCC3(CC2)CN(C(C)=O)c2c(-c4ccoc4)cccc23)CC1 [compound 559]	25 to 100	xxx (activity was measured to be less than 2.0 μM)	25 to 100	x (activity was measured to be greater than 5.0 μM)	–	–	–	–	–
CCOC(=O)N1CCC(N2CCC3(CC2)CNc2ccc(Cl)cc23)CC1 [compound 19]	–	–	–	–	xxx (activity was measured to be less than 0.1 μM)	65 to 85	xx (activity was measured to be between 0.1 μM and 1.0 μM)	65 to 85	–
CCOC(=O)N1CCCC(N2CCC3(CC2)CN(C(C)=O)c2ccc(F)cc23)CC1 (centres unmarked) [compound 309]	–	–	–	–	xx (activity was measured to be between 0.1 μM and 1.0 μM)	> 85	x (activity was measured to be greater than 1.0 μM)	< 65	–
CCOC(=O)N1C2CCC1CC(N1CCC3(CC1)COc1ccc(Cl)cc13)C2 (centres unmarked) [compound 99]	–	–	–	–	xxx (activity was measured to be less than 0.1 μM)	< 65	x (activity was measured to be greater than 1.0 μM)	< 65	–
COc1cc2c(cc1OC)C1(CCN(C3CCCCC3)CC1)C[C@@H]2N(C(C)=O)[C@@H](C)c1ccccc1 [compound 643]	< 25	x (activity was measured to be greater than 5.0 μM)	< 25	x (activity was measured to be greater than 5.0 μM)	–	–	–	–	–
CCOC(=O)N1C2CCC1CC(N1CCC3(CC1)CN(C(C)=O)c1c(C(F)(F)F)cccc13)C2 (centres unmarked) [compound 686]	< 25	x (activity was measured to be greater than 5.0 μM)	< 25	x (activity was measured to be greater than 5.0 μM)	–	–	–	–	–
CC(=O)N[C@H]1CC2(CCN(CC3CCN(C(=O)O[C@@H]4CCOC4)CC3)CC2)c2ccccc21 [compound 684]	< 25	x (activity was measured to be greater than 5.0 μM)	< 25	x (activity was measured to be greater than 5.0 μM)	–	–	–	–	–
CC(=O)N[C@H]1CCC2(CCN(CCC3=C(C)CCCC3(C)C)CC2)c2ccccc21 [compound 764]	25 to 100	xxx (activity was measured to be less than 2.0 μM)	< 25	xxx (activity was measured to be less than 2.0 μM)	–	–	–	–	–
Cc1ccc2c(c1)C1(CCN(C3CC4CCC3C4)CC1)CN2C(=O)c1snnc1C (centres unmarked) [compound 982]	< 25	–	< 25	–	–	–	–	–	M1 Activity (M1 muscarinic receptor; [8]): x (activity was measured to be greater than 5.0 μM); M4 Activity (M4 muscarinic receptor; [9]): x (activity was measured to be greater than 5.0 μM)
CC(C)N(C(=O)N[C@H]1CC2(CCN(C3CC4CC[C@@H]3C4)CC2)c2ccccc21)C(C)C (some centres unmarked) [compound 960]	< 25	–	25 to 100	–	–	–	–	–	M1 Activity (M1 muscarinic receptor; [8]): x (activity was measured to be greater than 5.0 μM); M4 Activity (M4 muscarinic receptor; [9]): xx (activity was measured to be between 2.0 μM and 5.0 μM)
CN(C)C(=O)N1CC2(CCN(C3CCN(C(=O)c4ccccc4F)CC3)CC2)c2cc(F)ccc21 [compound 887]	25 to 100	–	< 25	–	–	–	–	–	M1 Activity (M1 muscarinic receptor; [8]): xx (activity was measured to be between 2.0 μM and 5.0 μM); M4 Activity (M4 muscarinic receptor; [9]): x (activity was measured to be greater than 5.0 μM)
Cc1ccc2c(c1)C1(CCN(C3CC4CCC3C4)CC1)CN2 (centres unmarked) [compound 350]	–	–	–	–	xxx (activity was measured to be less than 0.1 μM)	> 85	xxx (activity was measured to be less than 0.1 μM)	> 85	–
CCOC(=O)N1CCC(CN2CCC3(CC2)CN(C(C)=O)c2ccc(C(C)C)cc23)CC1 [compound 555]	25 to 100	xxx (activity was measured to be less than 2.0 μM)	25 to 100	xx (activity was measured to be between 2.0 μM and 5.0 μM)	–	–	–	–	–
CC(=O)NC1CCC2(CCN(CCC3CCCN(C(=O)C(C)(C)C)C3)CC2)c2ccccc21 (centres unmarked) [compound 828]	25 to 100	–	< 25	–	–	–	–	–	M1 Activity (M1 muscarinic receptor; [8]): xxx (activity was measured to be less than 2.0 μM); M4 Activity (M4 muscarinic receptor; [9]): x (activity was measured to be greater than 5.0 μM)
CC(=O)N[C@H]1CC2(CCN([C@H]3C[C@@H]4CC[C@@H]3C4)CC2)c2ccccc21 [compound 274]	–	–	–	–	xxx (activity was measured to be less than 0.1 μM)	65 to 85	x (activity was measured to be greater than 1.0 μM)	> 85	–
CC(=O)N1CC2(CCN(C3CCN(c4nc5ccccc5s4)CC3)CC2)c2ccccc21 [compound 545]	< 25	x (activity was measured to be greater than 5.0 μM)	< 25	x (activity was measured to be greater than 5.0 μM)	–	–	–	–	–
CC(=O)N1CC2(CCN(CC3CCOC3)CC2)c2cc(F)ccc21 (centres unmarked) [compound 135]	–	–	–	–	xxx (activity was measured to be less than 0.1 μM)	> 85	xx (activity was measured to be between 0.1 μM and 1.0 μM)	> 85	–
CC(=O)NC1CC2(CCN(CC3CC4C=CC3C4)CC2)c2ccccc21 (centres unmarked) [compound 185]	–	–	–	–	x (activity was measured to be greater than 1.0 μM)	–	x (activity was measured to be greater than 1.0 μM)	–	M1 Efficacy (M1 muscarinic receptor; [4]): xx (efficacy was calculated to be between 85% and 65%); M4 Efficacy (M4 muscarinic receptor; [6]): xx (efficacy was calculated to be between 85% and 65%)
CN(C)C(=O)NC1CCC2(CCN(CC3CC4C=CC3C4)CC2)c2ccccc21 (centres unmarked) [compound 998]	< 25	–	25 to 100	–	–	–	–	–	M1 Activity (M1 muscarinic receptor; [8]): x (activity was measured to be greater than 5.0 μM); M4 Activity (M4 muscarinic receptor; [9]): xxx (activity was measured to be less than 2.0 μM)
COc1ccc(N2CCC(N3CCC4(CC3)CN(C(=O)N(C)C)c3ccc(F)cc34)CC2)cc1 [compound 1029]	–	–	–	–	–	–	–	–	Emax (M1 muscarinic receptor; [10]): 25 to 100%; EC50 (M1 muscarinic receptor; CHO cells expressing M1, calcium mobilization, Table 5): 2 to 10 µM; Emax (M4 muscarinic receptor; [10]): 25 to 100%; EC50 (M4 muscarinic receptor; CHO cells expressing M4, calcium mobilization, Table 5): 2 to 10 µM
CC(=O)N1CC2(CCN(CC3CCN(C(=O)OC(C)C)CC3)CC2)c2cc(F)ccc21 [compound 202]	–	–	–	–	xx (activity was measured to be between 0.1 μM and 1.0 μM)	65 to 85	x (activity was measured to be greater than 1.0 μM)	< 65	–
